Test results published in ChEMBL document CHEMBL1144997, “Interaction of cis-(6-benzhydrylpiperidin-3-yl)benzylamine analogues with monoamine transporters: structure-activity relationship study of structurally constrained 3,6-disubstituted piperidine analogues of (2,2-diphenylethyl)-[1-(4-fluorobenzyl)piperidin-4-ylmethyl]amine” (J Med Chem, 2003).
pIC50: −log10 of the molar value.

Columns and labels:
[1] = target: Sodium-dependent dopamine transporter (Rattus norvegicus, UniProt P23977); experiment: biochemical; type: tissue-based, Striatum
Description: Binding affinity at the dopamine transporter in rast striatum by [3H]WIN-35428 displacement.

[2] = target: Norepinephrine transporter (Rattus norvegicus, UniProt Q9WTR4); experiment: Binding affinity at the norepinephrine transporter in rat striatum by [3H]nisoxetine displacement.; type: tissue-based
[3] = target: Sodium-dependent serotonin transporter (Rattus norvegicus, UniProt P31652); experiment: Binding affinity at serotonin transporter in rat striatum by [3H]citalopram displacement.; type: tissue-based
[4] = Ratio of [3H]- DA uptake to DAT binding was determined; type: functional
Rattus norvegicus = species on record: Rattus norvegicus; experiment: Inhibition of DAT uptake was determined by measuring the [3H]DA accumulation in rat striatal synaptosomes; type: functional; details: Brain

Chain of Sodium-dependent serotonin transporter (P31652 whole entry): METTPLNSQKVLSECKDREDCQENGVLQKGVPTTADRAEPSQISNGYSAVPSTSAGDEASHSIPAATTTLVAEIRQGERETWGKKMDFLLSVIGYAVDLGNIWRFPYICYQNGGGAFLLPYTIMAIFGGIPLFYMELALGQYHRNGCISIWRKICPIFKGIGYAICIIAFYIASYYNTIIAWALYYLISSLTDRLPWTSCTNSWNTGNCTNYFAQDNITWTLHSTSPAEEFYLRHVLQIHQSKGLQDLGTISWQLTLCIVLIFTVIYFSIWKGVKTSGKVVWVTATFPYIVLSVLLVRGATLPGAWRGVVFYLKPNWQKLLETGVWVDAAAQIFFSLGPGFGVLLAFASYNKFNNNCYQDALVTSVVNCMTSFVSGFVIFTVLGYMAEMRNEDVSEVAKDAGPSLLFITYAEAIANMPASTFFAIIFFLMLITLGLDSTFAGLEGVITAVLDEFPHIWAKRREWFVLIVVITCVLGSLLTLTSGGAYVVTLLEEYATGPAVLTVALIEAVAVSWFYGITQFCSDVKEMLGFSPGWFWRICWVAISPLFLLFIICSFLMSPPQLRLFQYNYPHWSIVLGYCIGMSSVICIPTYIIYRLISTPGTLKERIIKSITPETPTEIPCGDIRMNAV
Chain of Norepinephrine transporter (Q9WTR4 whole entry): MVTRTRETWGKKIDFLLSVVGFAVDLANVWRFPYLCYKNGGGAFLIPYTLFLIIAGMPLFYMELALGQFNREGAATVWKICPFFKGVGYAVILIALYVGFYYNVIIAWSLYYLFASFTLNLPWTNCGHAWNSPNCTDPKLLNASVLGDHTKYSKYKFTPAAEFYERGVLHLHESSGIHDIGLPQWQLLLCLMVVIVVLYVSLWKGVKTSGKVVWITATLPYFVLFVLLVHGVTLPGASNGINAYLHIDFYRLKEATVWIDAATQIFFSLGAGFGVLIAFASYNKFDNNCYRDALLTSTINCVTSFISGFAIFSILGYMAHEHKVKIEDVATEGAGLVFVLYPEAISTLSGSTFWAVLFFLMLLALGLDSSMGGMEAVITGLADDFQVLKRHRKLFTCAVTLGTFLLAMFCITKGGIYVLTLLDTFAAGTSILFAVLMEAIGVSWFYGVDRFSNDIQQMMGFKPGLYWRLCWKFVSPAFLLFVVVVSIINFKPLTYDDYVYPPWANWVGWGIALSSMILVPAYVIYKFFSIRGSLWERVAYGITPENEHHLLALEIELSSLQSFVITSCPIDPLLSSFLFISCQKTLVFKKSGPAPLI
Chain of Sodium-dependent dopamine transporter (P23977 whole entry): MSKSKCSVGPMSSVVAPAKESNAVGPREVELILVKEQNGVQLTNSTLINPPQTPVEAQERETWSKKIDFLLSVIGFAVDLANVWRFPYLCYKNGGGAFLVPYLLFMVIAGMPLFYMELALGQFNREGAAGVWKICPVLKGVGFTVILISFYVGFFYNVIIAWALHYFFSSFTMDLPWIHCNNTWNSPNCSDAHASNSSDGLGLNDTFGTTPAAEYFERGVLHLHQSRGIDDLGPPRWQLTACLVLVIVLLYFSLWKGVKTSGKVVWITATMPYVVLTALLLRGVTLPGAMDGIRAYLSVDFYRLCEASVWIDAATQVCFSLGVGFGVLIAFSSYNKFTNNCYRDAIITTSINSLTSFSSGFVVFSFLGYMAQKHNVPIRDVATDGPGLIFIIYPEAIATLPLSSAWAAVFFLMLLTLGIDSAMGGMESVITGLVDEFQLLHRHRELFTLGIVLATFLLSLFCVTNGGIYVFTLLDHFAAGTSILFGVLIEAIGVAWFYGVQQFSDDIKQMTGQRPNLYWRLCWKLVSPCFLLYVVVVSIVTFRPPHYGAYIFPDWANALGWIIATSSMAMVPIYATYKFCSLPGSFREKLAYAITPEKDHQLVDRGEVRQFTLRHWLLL

## c1ccc(C(c2ccccc2)[C@H]2CC[C@@H](NCc3cccs3)CN2)cc1
[1]
  pIC50: 6.57
[2]
  pIC50: 5.33
[3]
  pIC50: 5.44

## Fc1ccc(CN2CCC(CNCC(c3ccccc3)c3ccccc3)CC2)cc1
[4]
  Selectivity ratio: 2.5

## c1ccc(C(c2ccccc2)[C@H]2CC[C@@H](NCc3csc4ccccc34)CN2)cc1
[1]
  pIC50: 6.29
[2]
  pIC50: 5.98
[3]
  pIC50: 5.56

## N#Cc1ccc(CN[C@@H]2CC[C@H](C(c3ccccc3)c3ccccc3)NC2)cc1
[1]
  pIC50: 6.96
[2]
  pIC50: 4.78
Rattus norvegicus
  pIC50: 6.82
[3]
  pIC50: 5.81
[4]
  Selectivity ratio: 1.4

## c1ccc(CN[C@@H]2CC[C@H](C(c3ccccc3)c3ccccc3)NC2)cc1
[1]
  pIC50: 6.94
[2]
  pIC50: 6.21
[3]
  pIC50: 5.67

## COc1ccc(CN[C@@H]2CC[C@H](C(c3ccccc3)c3ccccc3)NC2)cc1
[1]
  pIC50: 7.32
[2]
  pIC50: 5.95
Rattus norvegicus
  pIC50: 7.39
[3]
  pIC50: 5.98
[4]
  Selectivity ratio: 0.85

## N#Cc1ccc(CN[C@H]2CC[C@@H](C(c3ccccc3)c3ccccc3)NC2)cc1
[1]
  pIC50: 7.95
[2]
  pIC50: 5.78
Rattus norvegicus
  pIC50: 8.04
[3]
  pIC50: 6.36
[4]
  Selectivity ratio: 0.8

## Fc1ccc(CNC2CCC(C(c3ccccc3)c3ccccc3)NC2)cc1 (racemic)
[4]
  Selectivity ratio: 1.4

## c1ccc(C(c2ccccc2)[C@H]2CC[C@@H](NCc3c[nH]c4ccccc34)CN2)cc1
[1]
  pIC50: 6.08
[2]
  pIC50: 5.42
[3]
  pIC50: 5.52

## Fc1ccc(CCNC2CCC(C(c3ccccc3)c3ccccc3)NC2)cc1 (stereo not given)
[1]
  pIC50: 6.76
[2]
  pIC50: 5.76
[3]
  pIC50: 5.66

## Fc1ccc(CN[C@@H]2CC[C@H](C(c3ccccc3)c3ccccc3)NC2)cc1F
[1]
  pIC50: 7.20
[2]
  pIC50: 5.80
Rattus norvegicus
  pIC50: 7.11
[3]
  pIC50: 5.65
[4]
  Selectivity ratio: 1.2

## Oc1ccc(CN[C@@H]2CC[C@H](C(c3ccccc3)c3ccccc3)NC2)cc1
[1]
  pIC50: 7.18
[2]
  pIC50: 6.70
[3]
  pIC50: 6.06

## c1ccc(C(c2ccccc2)[C@H]2CC[C@@H](NCc3cc4ccccc4[nH]3)CN2)cc1
[1]
  pIC50: 7.02
[2]
  pIC50: 6.00
Rattus norvegicus
  pIC50: 7.29
[3]
  pIC50: 5.74
[4]
  Selectivity ratio: 0.53

## Fc1ccc(CN[C@@H]2CC[C@H](C(c3ccccc3)c3ccccc3)NC2)cc1
[1]
  pIC50: 6.64
[2]
  pIC50: 5.64
Rattus norvegicus
  pIC50: 6.85
[3]
  pIC50: 5.45
[4]
  Selectivity ratio: 0.62

## Fc1ccc(CN[C@H]2CC[C@@H](C(c3ccccc3)c3ccccc3)NC2)cc1
[1]
  pIC50: 7.47
[2]
  pIC50: 5.85
Rattus norvegicus
  pIC50: 7.27
[3]
  pIC50: 5.88
[4]
  Selectivity ratio: 1.6
